We go through four molecules from patent publication US10011572B2, “Monocyclic isoxazolines as inhibitors of cholesterol ester transfer protein” (Merck Sharp & Dohme Corp., priority 2014, dated 2018).

SMILES strings stand for the structures.

For data set [1] the following is noted: torcetrapib and atorvastatin concomitantly compared with atorvastatin alone; cited from earlier work.
The conditions of data set [2]: anacetrapib with baseline statin therapy compared with patients treated with just a statin; cited from earlier work.
The conditions of data set [3]: Phase III outcomes trial, cited from earlier work.
The target in data set [4] is T1, endogenous CETP from serum (Homo sapiens, UniProt P11597).
T1 construct: yielding a concentration of approximately 15 nM endogenous CETP in the assay; from tissue; host or cells: human serum
T1 sequence (P11597 18-493): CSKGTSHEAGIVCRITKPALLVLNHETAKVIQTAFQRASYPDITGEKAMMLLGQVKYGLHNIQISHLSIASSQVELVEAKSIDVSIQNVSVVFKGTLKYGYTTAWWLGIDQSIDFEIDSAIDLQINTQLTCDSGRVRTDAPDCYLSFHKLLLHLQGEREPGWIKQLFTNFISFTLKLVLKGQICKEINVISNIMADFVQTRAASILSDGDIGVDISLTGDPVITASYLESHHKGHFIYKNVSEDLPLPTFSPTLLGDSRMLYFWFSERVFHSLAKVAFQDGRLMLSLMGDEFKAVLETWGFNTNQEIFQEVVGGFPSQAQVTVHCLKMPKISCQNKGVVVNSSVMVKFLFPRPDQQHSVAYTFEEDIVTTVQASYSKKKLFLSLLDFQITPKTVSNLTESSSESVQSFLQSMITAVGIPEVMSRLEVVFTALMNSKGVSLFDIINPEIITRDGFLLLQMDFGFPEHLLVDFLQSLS
Put plainly: RTA assay in 95% human serum (in vitro radioactive assay of CETP-catalyzed CE and TG transfer, endogenous CETP). It counts as biochemical. Particulars: read-out: IC50 RTA (95% HS). As for the experimental part: In Vitro Radioactive Assays of CETP-Catalyzed CE and TG Transfer (RTA Assay)
Reagents and sources are: [3H] cholesteryl oleate (GE #TRK.886), [3H] Triolein (Perkin-Elmer NET-431), Butylated hydroxyl toluene (Aldrich, #D4740-4), DOPC (Sigma, # P6354), Sodium Bromide (Fisher scientific #S255-500), PEG 8000 (Fisher, #BP233-1), and human HDL (Intracel Corp #RP-036).
An in vitro assay for determining IC50's to identify compounds that inhibit CETP transfer activity is performed based on a modification of a published method (Morton and Zilversmit, (1981) A plasma inhibitor of triglyceride and cholesteryl ester transfer activities, J. Biol. Chem. 256(23), 11992-11995). The ability of inhibitors to alter CETP activity is performed using two different assays: one using recombinant CETP and one using an endogenous plasma source of CETP. Both assays measure the transfer of [3H] cholesteryl oleate or [3H] triolein from exogenous LDL to HDL.
Radiolabeled donor particles are generated by first combining 100 μl of 200 μM butylated hydroxyl toluene in CHCl3, 216 μL of 21.57 mM DOPC in EtOH, and either 500 μCi [3H]-triolein (Perkin Elmer #NET-431) or 500 μCi [3H]-cholesteryl oleate (GE #TRK886) in a glass tube. Reagents are mixed, dried under nitrogen, and then resuspended in 2 mL of 50 mM Tris, 27 μM EDTA at pH 7.4. After a brief vortex, the solution is sonicated until clear and mixed with 20 mL of fresh human serum. The mixture is incubated overnight at 37° C. The [3H] labeled LDL substrate is separated at 1.063 g/ml density by sequential ultracentrifugal flotation in NaBr according to the method of Havel, Eder, et al., 1955, and Chapman, Goldstein, et al., 1981. Once isolated the particles are dialyzed 3× in CETP buffer (50 mM Tris, pH 7.4, 100 mM NaCl, 1 mM EDTA). Human HDL is purchased from Intracel and used as the acceptor particles.
Transfer assays are performed in a 96-well v-bottom polypropylene plate. For the RTA using recombinant CETP (2% RTA), an assay cocktail is prepared with the final concentrations 128 μg/mL HDL, 20 nM rCETP, 2% human serum, and 1×CETP buffer. 1 μL of each test compound diluted in DMSO is added to 47 μL of assay cocktail per well and incubated at 37° C. for 1 hour. To initiate the transfer reaction, 2 μL radiolabeled LDL is added. After an additional 60 min of incubation at 37° C., the transfer action is terminated by precipitation of LDL with an equal volume of 20% WN PEG 8000. The plates are centrifuged at 2000 rpm for 30 minutes at 4° C. A 40 μL aliquot of the HDL-containing supernatant is transferred to a Packard Optiplate™ with 200 μL of MicroScint™ 20. After mixing, plates are counted by liquid scintillation. Counts present in the supernatant for blanks (wells containing only HDL acceptor, CETP buffer and DMSO) are subtracted from those containing test compounds and used to correct for non-specific transfer.
For the transfer assay using endogenous CETP from serum (95% RTA), the same procedure is used except that human serum is added such that a final concentration of serum of 95% of the total assay volume is achieved, yielding a concentration of approximately 15 nM endogenous CETP in the assay. This is then combined with HDL and CETP buffer and the reaction proceeds as above and is terminated as described.
Comparison of the counts of samples with inhibitors to an uninhibited (DMSO only) positive control yield a percent inhibition. A plot of percent inhibition vs. log of inhibitor concentration, fit to a Sigmoidal 4 parameter equation is used to calculate IC50.
Starting materials are commercially available or are made using known procedures or as shown below. The examples may be synthesized according to the general schemes provided below and by using the synthetic intermediates that are described. The data reported for the examples below were obtained using the RTA assay in 95% human serum.

In the case of `CCOC(=O)N1c2ccc(C(F)(F)F)cc2[C@@H](N(Cc2cc(C(F)(F)F)cc(C(F)(F)F)c2)C(=O)OC)C[C@H]1CC` [torcetrapib], in data set [1], the mortality result is on record as “higher incidence of mortality”.
`COc1cc(F)c(C(C)C)cc1-c1ccc(C(F)(F)F)cc1CN1C(=O)O[C@H](c2cc(C(F)(F)F)cc(C(F)(F)F)c2)[C@@H]1C` [anacetrapib]: in data set [2], the “decrease of LDL-C” value is given as 40% and the “increase of HDL-C” value is given as 138%.
In the case of `CCC(CC)CC1(C(=O)Nc2ccccc2SC(=O)C(C)C)CCCCC1` [dalcetrapib], the “clinical benefit (interim data)” value in data set [3] (terminated early) was “did not show a clinical benefit”. In data set [3], the safety issues result is listed as “no safety issues detected”.
In the case of `COc1cc(F)c(-c2ccc(-c3n[nH]c(=O)o3)cc2C)cc1-c1ccc(C(F)(F)F)cc1CC1=NO[C@H](c2cc(C(F)(F)F)cc(C(F)(F)F)c2)C1` [Example 2, (S)-5-(2″-((5-(3,5-bis(trifluoromethyl)phenyl)-4,5-dihydroisoxazol-3-yl)methyl)-6′-fluoro-4′-methoxy-2-methyl-4″-(trifluoromethyl)-[1,1′:3′,1″-terphenyl]-4-yl)-1,3,4-oxadiazol-2(3H)-one], in data set [4], the IC50 was found to be 167 nM.
